Source: patent publication US20240197670A1, “TREATMENT OF HERPES ZOSTER WITH TOPICAL TETRACAINE” (PAGARI LIFE SCIENCE CORP, priority 2022, published 2024)

Experiments:
[1] = test system: VZV-ORF57-Luc (Varicella Zoster Virus) in adult human skin; experiment: Antiviral evaluation against VZV in skin organ culture (SOC), bioluminescence VZV yield as fold change; type: cell-based
Experimental: The goal of this study was to evaluate the effect of tetracaine against VZV in a skin organ culture (SOC) model and to determine an appropriate duration of treatment in skin to prevent VZV spread. Tetracaine, either the formulation of Example 2 or the formulation of Example 7, was tested as a topical treatment (formulated in the vehicle of Example 7) against VZV infections. Control formulations (cidofovir, CDV) were formulated in cocoa butter.
(§1) Adult human skin from a reduction mammoplasty was cleaned and cut to a thickness of 1 mm, maintaining normal skin architecture while removing underlying adipose and some of the subdermal and connective tissue. Skin was inoculated by scarification with VZV-ORF57-Luc (cell-associated virus, from a frozen stock). VZV-ORF57-Luc expresses firefly luciferase. Infected skin was placed on NetWells, which are designed to hold skin at the air-liquid interface. This orientation keeps the epidermis in contact with the air so it remains dry, while the dermis remains moist and in contact with the medium. Infected skin was scanned by IVIS Spectrum on DPI (Day Post Inoculation) 1 and 3, and prior to treatment being initiated. All treatments were started on DPI 3, but removed after different amounts of time, including after 8, 24, 48, or 72 hours. All compounds were formulated in either the test vehicle or cocoa butter (cidofovir, CDV) and applied directly to the epidermis. To remove treatment, the compound was gently wiped off the surface of the skin, and the entire skin explant was submerged and gently swirled in phosphate-buffered saline (PBS) for a few seconds to remove any residue. The topical treatment was removed prior to imaging by gently wiping it off the epidermis.
FIGS. 4A-4D show VZV yield as fold change, which was calculated as the total flux (photons/sec) normalized to DPI 1 for each skin explant. Imaging started on DPI 1 and was performed every day or every other day starting on DPI 3, depending on the group. In FIGS. 4A-4D, the treatment period is highlighted by a gray box. […]

Adult human skin = experiment: Skin appearance / toxicity in skin organ culture; type: cell-based; conditions: for skin color change: skin treated for 48 or 72 hours, more intense in 72 hour group, only where applied
Description: as §1
In this study, tetracaine was placed as a small drop in the center of the skin. A color change in the skin treated for 48 or 72 hours was observed, with more intense coloring in the 72 hour group. […] Each row in FIG. 5 depicts the same piece of skin over the course of the assay.

[2] = cited from earlier work

| SMILES | virus spread compared to cocoa butter vehicle ([1]; formulated in cocoa butter, by end of treatment phase (FIG. 4D, 72 hours), Student's t-test p<0.01) | skin color change (Adult human skin) | effect against VZV-infected skin as a topical treatment (study conclusion) ([1]; skin organ culture) | effect on VZV yield vs test vehicle ([1]; topical treatments of 24-72 hours started DPI 3, one-way ANOVA) | toxicity to the skin (Adult human skin; low bioluminescent signals in treated explants even after 3 days) | solubility in alcohol, ether, benzene and chloroform ([2]; alcohol, ether, benzene, chloroform) | solubility in water ([2]; water) |
| --- | --- | --- | --- | --- | --- | --- | --- |
| Nc1ccn(C[C@@H](CO)OCP(=O)(O)O)c(=O)n1 [CDV, cidofovir] | significantly lower virus spread | No color change |  |  |  |  |  |
| CCCCNc1ccc(C(=O)OCCN(C)C)cc1 [Tetracaine] |  | color change | highly effective | highly effective | not toxic to the skin | soluble | very slightly soluble |
